Assay results from patent publication US20230265068A1, “TRANSIENT RECEPTOR POTENTIAL CANONICAL 3 INHIBITORS AND METHODS OF USE THEREOF” (University of Tennessee Research Foundation, priority 2020, published 2023).

Assays:
hTRPC7 = biological target: T1, hTRPC7 (Homo sapiens, UniProt Q9HCX4); test: whole-cell patch clamp selectivity, HEK 293 cells overexpressing hTRPC7; type: cell-based; settings: HEK293, with agonist, solutions without Ca2+, read-out: % of the current of hTRPC7 inhibited
T1 construct: expressed in transfected cells; host or cells: HEK293, transient transfection, pMO vector
T1 sequence (Q9HCX4 1-862): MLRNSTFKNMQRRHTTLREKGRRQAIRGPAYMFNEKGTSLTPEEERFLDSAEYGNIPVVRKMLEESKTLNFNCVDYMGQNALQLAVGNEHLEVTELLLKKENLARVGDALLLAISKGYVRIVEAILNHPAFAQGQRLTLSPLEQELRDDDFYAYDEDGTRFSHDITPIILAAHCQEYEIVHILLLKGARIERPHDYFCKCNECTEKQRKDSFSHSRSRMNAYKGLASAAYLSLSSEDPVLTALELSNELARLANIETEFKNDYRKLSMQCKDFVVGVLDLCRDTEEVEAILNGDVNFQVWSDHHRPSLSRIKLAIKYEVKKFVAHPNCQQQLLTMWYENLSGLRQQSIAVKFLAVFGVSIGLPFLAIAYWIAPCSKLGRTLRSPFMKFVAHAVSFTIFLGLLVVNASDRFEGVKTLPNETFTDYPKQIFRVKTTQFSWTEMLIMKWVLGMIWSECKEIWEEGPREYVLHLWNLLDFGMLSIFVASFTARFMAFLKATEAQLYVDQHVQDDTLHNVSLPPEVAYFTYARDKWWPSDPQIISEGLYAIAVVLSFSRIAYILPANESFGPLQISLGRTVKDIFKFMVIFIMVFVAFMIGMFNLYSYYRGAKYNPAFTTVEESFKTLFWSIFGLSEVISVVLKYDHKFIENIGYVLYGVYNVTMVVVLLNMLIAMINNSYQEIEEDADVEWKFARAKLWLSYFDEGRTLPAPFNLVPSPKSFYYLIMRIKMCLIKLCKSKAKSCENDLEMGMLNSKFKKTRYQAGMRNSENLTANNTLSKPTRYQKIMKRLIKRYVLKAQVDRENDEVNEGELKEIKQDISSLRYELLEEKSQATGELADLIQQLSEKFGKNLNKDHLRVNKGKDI
Procedure: Human embryonic kidney 293 (HEK293; catalog number CRL-1573) cells were cultured in Dulbecco's modified Eagle's medium (Invitrogen) supplemented with 10% fetal bovine serum and 1% penicillin-streptomycin at 37° C. and 5% CO2. Constructs cloned in pMO (a pcDNA3-modified vector) were co-transfected with GFP-pMO, using Lipofectamine 2000 (Invitrogen) according to the manufacturer's instructions. Macroscopic currents in the whole-cell patch clamp configuration were recorded 18-24 h post-transfection. The extracellular solution contained 140 mM NaCl, 6 mM KCl, 2 mM MgCl2, 10 mM HEPES, and 10 mM glucose (pH 7.4). Pipettes were made of borosilicate glass (outer diameter, 1.5 mm; inner diameter, 1.10 mm; Sutter Instruments) and fire-polished with a resistance between 2.8 and 4.0 megaohms when filled with an intracellular solution that contained 140 mM CsCl, 5 mM EGTA, and 10 mM HEPES, pH 7.2. Currents were recorded with a Multiclamp 700B amplifier (Molecular Devices) using a 1-s ramp from −100 to 100 mV. […] Data were acquired with a sampling rate of 20 kHz, low-pass filtered (10 kHz), and analyzed offline using Clampfit v10.4.2.0 (Molecular Devices). […]

PTZ-induced seizures = test: mouse pentylenetetrazole (PTZ) model of SE; type: in vivo, mice; settings: 100 mg/kg, i.p., 30 min before PTZ; vs vehicle
Procedure: FIGS. 8A-8B show the inhibition of TRPC3 channels by compound 22 reduces susceptibility of animals to PTZ-induced seizures. Young adult C57BL/6 mice (male, 8-9 weeks) were first treated by compound 22 (100 mg/kg, i.p.), and 30 minutes later by pentylenetetrazole (PTZ, 80±5 mg/kg, s.c.) for the induction seizures. (FIG. 8A) Percentages of mice reaching myoclonic jerk (MJ, Left) and generalized tonic-clonic seizure (GTCS, Right) were compared between vehicle and compound 22-treated mice by Mantel-Cox log-rank test. (FIG. 8B) Latencies to the first MJ (Left) and first GTCS (Right) were compared between vehicle and compound 22 by t-test. Data are shown as mean+SEM (number of mice N=9 for vehicle; 10 for compound 22).
To ensure that the efficacy observed in FIG. 7 is not associated with this particular mouse model of epilepsy, we examined the effects of our current lead compound 22 on pentylenetetrazole (PTZ)-induced seizures in mice. As a GABA receptor antagonist, PTZ is another convulsant chemical commonly used to generate seizures in experimental rodents. Young adult C57BL/6 mice (male, 8-9 weeks) were first treated by 22 (100 mg/kg, i.p.) or vehicle. Thirty minutes later, mice were subcutaneously injected with (PTZ, ˜80 mg/kg) to induced seizures. Animals were placed in a plexiglass chamber, and the latencies to the first myoclonic jerk (MJ) and the first generalized tonic-clonic seizure (GTCS) were recorded during a 30-min period of observation. […] Given that PTZ (FIG. 8) and pilocarpine (FIG. 7) trigger seizures via different mechanisms of actions, it is unlikely the anti-seizure effects of our lead compound 22 are model-specific.

SMILES: CCNC(=O)c1cnn(-c2ccc(-n3ccc(Cl)c(Cl)c3=O)cc2)c1C(F)(F)F [Compound 22]
- inhibition at 10 µM (hTRPC7): ~22%
- latency to first GTCS (PTZ-induced seizures): significantly increased
- latency to first MJ (PTZ-induced seizures): significantly increased
- percentage of mice that reached generalized tonic-clonic seizure (GTCS) (PTZ-induced seizures): substantially reduced
- percentage of mice that reached myoclonic jerk (MJ) (PTZ-induced seizures): substantially reduced
